Test results as given in patent publication EP0103381B1, “Substituted anthra(1,9-cd)pyrazol-6(2H)-ones” (WARNER-LAMBERT COMPANY, priority 1982, dated 1984).
Like-named read-outs stand apart in the source and are kept apart here.

Legend:
Penicillium avellaneum = test: agar plate paper-disc inhibition zone screening; assay type: cell-based; conditions: Hamigera avellanea, read-out: Inhibition Zone Diameter mm (Dose mg/ml) P. Avellaneum; for zone of inhibition at 3000 µg/mL: Dose 3.0 mg/ml; for zone of inhibition at 1000 µg/mL: Dose 1.0 mg/ml
In short: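 Mycelia and spores from a six-day 28°C agar culture, suspended in saline with 0.05% Tween 80 at 20% transmittancy, were seeded into molten agar trays. Compounds at 3,000, 1,000, 500, 100 and 10 mcg/ml (solvent <10%) were applied on 12.7 mm paper discs. After at least 20-24 h incubation, inhibition zone diameter was measured in mm.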

[1] = tested on: HCT-8 (human colon adenocarcinoma) cells; test: in vitro activity against human colon adenocarcinoma (HCT-8), cell count; assay type: cell-based
Procedure: HCT-8 (human colon adenocarcinoma) cells are trypsinized using Trypsin-EDTA. A single cell suspension is achieved by passing the cells through a 26 gauge needle with a 20 cc syringe. A cell suspension is prepared using RPMI 1640 growth medium (available from Gibco Laboratories) +10% fetal calf serum +50 µg/ml garamycin with a cell concentration of approximately 30,000 cells/ml. The cell suspension is dispensed in Linbro 24-well plates; 1 ml/well. The plates are incubated for approximately 48 hrs at 37°C in a 5% C02 atmosphere. At this time test compounds are added in the appropriate concentration. Five µl of the 200 µg/ml stock solution is added to each well in a primary test. Ten pl of the appropriate dilution is added to each well for a titration test. The plates are reincubated an additional 60-65 hrs at 37°C in a 5% C02 atmosphere. The test is read by lysing the cells using a mix of cationic surfactant, glacial acetic acid and sodium chloride. […] of the lysed cell suspension from each well is added to 8 ml of diluent. Each sample is read with a Coulter counter (ZBI model). The activity of each sample is measured as a percentage of the controls and the data is reported as ID50, that is the molar quantity of drug required to kill 50% of the tumor cells.

Escherichia coli = test: agar plate paper-disc inhibition zone screening; assay type: cell-based; conditions: read-out: Inhibition Zone Diameter mm (Dose mg/ml) E. Coli; for zone of inhibition at 3000 µg/mL: Dose 3.0 mg/ml; for zone of inhibition at 500 µg/mL: Dose 0.5 mg/ml; for zone of inhibition at 1000 µg/mL: Dose 1.0 mg/ml
In short: (§1)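 Overnight bacterial cultures were suspended in 0.85% saline to 20-35% light transmittancy and mixed into molten assay agar poured in trays. Compounds at 3,000, 1,000, 500, 100 and 10 mcg/ml (solvent <10%) were applied to 12.7 mm paper discs; after 18-20 h at 37°C, inhibition zone diameters were measured in mm.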

Bacillus subtilis = test: agar plate paper-disc inhibition zone screening; assay type: cell-based; conditions: read-out: Inhibition Zone Diameter mm (Dose mg/ml) B. Subtilis; for zone of inhibition at 1000 µg/mL: Dose 1.0 mg/ml; for zone of inhibition at 100 µg/mL: Dose 0.1 mg/ml; for zone of inhibition at 3000 µg/mL: Dose 3.0 mg/ml
In short: as §1

Streptococcus faecalis = test: agar plate paper-disc inhibition zone screening; assay type: cell-based; conditions: Enterococcus faecalis, read-out: Inhibition Zone Diameter mm (Dose mg/ml) S. Faecalis; for zone of inhibition at 1000 µg/mL: Dose 1.0 mg/ml; for zone of inhibition at 500 µg/mL: Dose 0.5 mg/ml; for zone of inhibition at 3000 µg/mL: Dose 3.0 mg/ml
In short: as §1

Aerobacter aerogenes = test: agar plate paper-disc inhibition zone screening; assay type: cell-based; conditions: Klebsiella aerogenes, read-out: Inhibition Zone Diameter mm (Dose mg/ml) A. Aerogenes; for zone of inhibition at 100 µg/mL: Dose 0.1 mg/ml; for zone of inhibition at 500 µg/mL: Dose 0.5 mg/ml
In short: as §1

[2] = tested on: lymphocytic leukemia P388; test: in vivo lymphocytic leukemia P388 test; parameters: species or system mice; conditions: Mus musculus, P388, ip, 720 h, two single doses four days apart, read-out: T/C × 100 (Percent); for response vs control in vivo at 12.5 mg/kg: P388, Dose 12.5 mg/kg intraperitoneally; for response vs control in vivo at 25 mg/kg: P388, Dose 25 mg/kg intraperitoneally; for response vs control in vivo at 50 mg/kg: P388, Dose 50 mg/kg intraperitoneally; for response vs control in vivo at 3.12 mg/kg: P388, Dose 3.12 mg/kg intraperitoneally
In short: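 Efficacy was judged from the treated/control survival-time ratio over 30 days (T/C×100 >125% as criterion). Mice (CD2F, 6–7/group) received i.p. P388 ascites cells, then compound i.p. at varied doses twice, four days apart.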

[3] = Homo sapiens, HCT-8 cells, 60-65 hrs with compound, molar quantity of drug required to kill 50% of the tumor cells, read-out: ID50 Molar
[4] = HCT-8 human colon adenocarcinoma cells, 60-65 hrs incubation with compound, Coulter counter cell count as percentage of controls, read-out: ID50 (the source's name)

CCN(CC)CCCNc1ccc2c3c(nn2CCN(CC)CC)-c2ccccc2C(=O)c13 [Example 5, 2-[2-(Diethylamino)ethyl]-5-[[3-(diethylamino)propyl]amino]anthra[1,9-cd]pyrazol-6(2H)-one]
zone of inhibition at 3000 µg/mL (Penicillium avellaneum): 15 mm
IC50 [1, 3]: 180 nM
zone of inhibition at 3000 µg/mL (Escherichia coli): 15 mm
zone of inhibition at 1000 µg/mL (Bacillus subtilis): 25 mm
zone of inhibition at 1000 µg/mL (Streptococcus faecalis): 14 mm
zone of inhibition at 100 µg/mL (Aerobacter aerogenes): 20 mm

CCN(CC)CCn1nc2c3c(cccc31)C(=O)c1c(NCCNCCO)cccc1-2 [Example 79, 2-[2-(Diethylamino)ethyl]-7-[[2-[(2-hydroxyethyl)amino]ethyl]amino]anthra[1,9-cd]pyrazol-6(2H)-one]
zone of inhibition at 3000 µg/mL (Penicillium avellaneum): 15 mm
IC50 [1, 3]: 93 nM
zone of inhibition at 500 µg/mL (Escherichia coli): 15 mm
zone of inhibition at 100 µg/mL (Bacillus subtilis): 20 mm
zone of inhibition at 500 µg/mL (Streptococcus faecalis): 16 mm
zone of inhibition at 500 µg/mL (Aerobacter aerogenes): 18 mm

CCN(CC)CCNc1ccc2c3c(nn2C)-c2ccccc2C(=O)c13 [Example 10, 5-[[2-[Diethylamino)ethyl]amino]-2-methylanthra[1,9-cd]pyrazol-6(2H)-one]
zone of inhibition at 500 µg/mL (Penicillium avellaneum; Dose 0.5 mg/ml): 16 mm
IC50 [1, 3]: 410 nM
zone of inhibition at 3000 µg/mL (Escherichia coli): 15 mm
zone of inhibition at 100 µg/mL (Bacillus subtilis): 15 mm
zone of inhibition at 1000 µg/mL (Streptococcus faecalis): 16 mm
zone of inhibition at 500 µg/mL (Aerobacter aerogenes): 17 mm

CCN(CC)CCCNc1ccc2c3c(nn2CCO)-c2ccccc2C(=O)c13 [Example 15, 5-[[3-(Diethylamino)propyl]amino]-2-(2-hydroxyethyl)anthra[1,9-cd]pyrazol-6(2H)-one]
zone of inhibition at 3000 µg/mL (Penicillium avellaneum): 0 mm
IC50 [1, 3]: 480 nM
zone of inhibition at 3000 µg/mL (Escherichia coli): 0 mm
zone of inhibition at 1000 µg/mL (Bacillus subtilis): 22 mm
zone of inhibition at 3000 µg/mL (Streptococcus faecalis): 14 mm
zone of inhibition at 1000 µg/mL (Aerobacter aerogenes; Dose 1.0 mg/ml): 15 mm

CCN(CC)CCn1nc2c3c(c(NCCN)ccc31)C(=O)c1ccccc1-2 [Example 3, 5-[(2-Aminoethyl)amino]-2-[2-(diethylamino)ethyl]anthra[1,9-cd]pyrazol-6(2H)-one]
zone of inhibition at 3000 µg/mL (Penicillium avellaneum): 16 mm
IC50 [1, 3]: 52 nM
zone of inhibition at 1000 µg/mL (Escherichia coli): 14 mm
zone of inhibition at 100 µg/mL (Bacillus subtilis): 15 mm
zone of inhibition at 500 µg/mL (Streptococcus faecalis): 17 mm
zone of inhibition at 500 µg/mL (Aerobacter aerogenes): 14 mm

CN(C)CCNCCNc1ccc2c3c(nn2CCN)-c2c(O)ccc(O)c2C(=O)c13 [Example 74, 2-[2-Aminoethyl)-5-[[2-[[2-(dimethylamino)ethyl]amino]ethyl]amino]-7,10-dihydroxyanthra[1,9-cd]pyrazol-6(2H)-one]
zone of inhibition at 3000 µg/mL (Penicillium avellaneum): 0 mm
IC50 [1, 4]: 1200 nM
response vs control in vivo at 12.5 mg/kg [2]: 186%
response vs control in vivo at 25 mg/kg [2]: 192%
response vs control in vivo at 50 mg/kg [2]: 220%
zone of inhibition at 3000 µg/mL (Bacillus subtilis): 16 mm
zone of inhibition at 3000 µg/mL (Streptococcus faecalis): 0 mm

CNc1ccc2c3c(nn2CCNCCO)-c2ccccc2C(=O)c13 [Example 26, 2-[2-[(2-Hydroxyethyl)amino]ethyl]-5-(methylamino)anthra[1,9-cd]pyrazol-6(2H)-one]
zone of inhibition at 3000 µg/mL (Penicillium avellaneum): 0 mm
IC50 [1, 3]: 280 nM
zone of inhibition at 500 µg/mL (Escherichia coli): 14 mm
zone of inhibition at 100 µg/mL (Bacillus subtilis): 14 mm
zone of inhibition at 500 µg/mL (Streptococcus faecalis): 15 mm
zone of inhibition at 100 µg/mL (Aerobacter aerogenes): 15 mm

CCN(CC)CCNc1cccc2c1C(=O)c1cccc3c1c-2nn3CCN(CC)CC [Example 80, 2-[2-(Diethylamino)ethyl]-7-[[2-(diethylamino)ethyi]amino]anthra[1,9-cd]pyrazol-6(2H)-one]
zone of inhibition at 1000 µg/mL (Penicillium avellaneum): 16 mm
IC50 [1, 3]: 220 nM
zone of inhibition at 500 µg/mL (Escherichia coli): 14 mm
zone of inhibition at 100 µg/mL (Bacillus subtilis): 19 mm
zone of inhibition at 500 µg/mL (Streptococcus faecalis): 15 mm
zone of inhibition at 500 µg/mL (Aerobacter aerogenes): 16 mm

CCN(CC)CCCCCCCNc1ccc2c3c(nn2CCN(CC)CC)-c2ccccc2C(=O)c13 [Example 6]
zone of inhibition at 1000 µg/mL (Penicillium avellaneum): 14 mm
IC50 [1, 3]: 2200 nM
zone of inhibition at 1000 µg/mL (Escherichia coli): 14 mm
zone of inhibition at 500 µg/mL (Bacillus subtilis; Dose 0.5 mg/ml): 17 mm
zone of inhibition at 3000 µg/mL (Streptococcus faecalis): 14 mm
zone of inhibition at 3000 µg/mL (Aerobacter aerogenes; Dose 3.0 mg/ml): 0 mm

NCCn1nc2c3c(c(NCCNCCO)ccc31)C(=O)c1c(O)ccc(O)c1-2 [Example 71, 2-(2-Aminoethyl)-7,10-dihydroxy-5-[[2-[(2-hydroxyethyl)amino]ethyl]amino]anthra[1,9-cd]pyrazol-6(2H)-one]
IC50 [1, 4]: 1700 nM
response vs control in vivo at 1.56 mg/kg ([2]; P388, Dose 1.56 mg/kg intraperitoneally): 153%
response vs control in vivo at 3.12 mg/kg [2]: 160%
response vs control in vivo at 6.25 mg/kg ([2]; P388, Dose 6.25 mg/kg intraperitoneally): 163%
response vs control in vivo at 12.5 mg/kg [2]: 182%
response vs control in vivo at 25 mg/kg [2]: 257%

CCN(CC)CCNc1ccc2c3c(nn2CCO)-c2ccccc2C(=O)c13 [Example 13, 5-[[2-(Diethylamino]ethyl]amino]-2-(2-hydroxyethyl)anthra[1,9-cd]pyrazol-6(2H)-one]
zone of inhibition at 3000 µg/mL (Penicillium avellaneum): 16 mm
IC50 [1, 3]: 1800 nM
zone of inhibition at 1000 µg/mL (Escherichia coli): 15 mm
zone of inhibition at 100 µg/mL (Bacillus subtilis): 15 mm
zone of inhibition at 1000 µg/mL (Streptococcus faecalis): 14 mm
zone of inhibition at 500 µg/mL (Aerobacter aerogenes): 20 mm

NCCCn1nc2c3c(c(NCCNCCO)ccc31)C(=O)c1c(O)ccc(O)c1-2 [Example 90, 2-(3-Aminopropyl)-7,10-dihydroxy-5-[[2-[(2-hydroxyethyl)amino]ethyl]amino]anthra[1,9-cd]pyrazol-6(2H)-one]
zone of inhibition at 3000 µg/mL (Penicillium avellaneum): 0 mm
IC50 [1, 4]: 770 nM
response vs control in vivo at 25 mg/kg [2]: 285%
response vs control in vivo at 50 mg/kg [2]: 285%
zone of inhibition at 3000 µg/mL (Bacillus subtilis): 16 mm
zone of inhibition at 3000 µg/mL (Streptococcus faecalis): 0 mm

CNCCn1nc2c3c(c(NCCNCCO)ccc31)C(=O)c1c(O)ccc(O)c1-2 [Example 93, 7,10-Dihydroxy-5-[[2-[(2-hydroxyethyl)amino]ethyl]amino]-2-[2-(methylamino)ethyl]anthra[1,9-cd]pyrazol-6(2H)-one]
IC50 [1, 4]: 230 nM
response vs control in vivo at 12.5 mg/kg [2]: 147%

Cn1nc2c3c(c(NCCNCCO)ccc31)C(=O)c1c(O)ccc(O)c1-2 [Example 41, 7,10-Dihydroxy-5-[[2-[(2-hydroxyethyl)amino]ethyl]amino]-2-methylanthra[1,9-cd]pyrazol-6(2H)-one]
IC50 [1, 3]: 790 nM
response vs control in vivo at 3.12 mg/kg [2]: 138%
response vs control in vivo at 12.5 mg/kg [2]: 140%
response vs control in vivo at 25 mg/kg [2]: 150%
response vs control in vivo at 50 mg/kg [2]: 162%
response vs control in vivo at 100 mg/kg ([2]; P388, Dose 100 mg/kg intraperitoneally): 174%
